The source of these data is patent US9205050B2, “Antibiotic formulations, unit doses, kits and methods” (Bayer Intellectual Property GmbH, priority 2005, dated 2015).

Where a name gives a salt, the structure may show the parent alone. Read-outs that look alike come from different tables or passages of the source.

Data set [1] in a line: osmolality of gentamicin sulfate solutions. It counts as physicochemical. As for the experimental part:
Solubility in water was determined via visual assessment. Osmolality and pH were also determined. […] The solubility was determined by visual assessment.

Data set [2] in a line: density of Vancomycin HCl solutions. In kind it is physicochemical. The method, then: On the final solution, pH and density were measured and appearance was evaluated. […]
A short description of data set [3]: pH of Vancomycin HCl solutions, bulk solution and reconstituted lyophilizate. It counts as physicochemical. As for the experimental part: […] On the final solution, pH and density were measured and appearance was evaluated. After lyophilization the following analyses were performed on the final product: • water content by Karl Fischer titration; • appearance of the cake, • reconstitution time, • appearance/clarity, • pH after reconstitution.

A short description of data set [4]: solubility study of Vancomycin HCl in water (saturated solution, UV 280 nm). In kind it is physicochemical. As to conditions: thermodynamic from solid, water for injection, stirred 48 h, filtered, read-out: maximum solubility in water. As for the experimental part:
A saturated solution of Vancomycin HCl in water for injection was prepared by adding under stirring the active agent to the solvent.
Suspension was stirred for 48 h in order to reach the equilibrium conditions for the dissolution.
Suspensions was filtered first through a paper filter and then through a 0.45 μm PVDF filter discarding the first drops of solution which could have been diluted because of the binding of the product to the membrane.
The filtrated solutions of Vancomycin HCl in water coming from the respective saturated solutions, was diluted to reach a final concentration which gave an Abs value at λ=280 nm included into the calibration curve.
Each diluted solution was analysed in triplicate with UV at λ=280 nm. For each solution the absorbances have been mediated and the final value has been substituted in the respective calibration curve equation to calculate the concentration.

In another data set the test system is CD rats. Description: 14-consecutive day nose-only inhalation toxicity and recovery. It counts as in vivo, rat. The method, then:
This Example involved evaluating the potential toxicity and recovery resulting from a 14-consecutive day, nose-only inhalation administration of vancomycin hydrochloride (vancomycin) to CD rats.
The solution was used to generate aerosolized vancomycin for all vancomycin exposure groups.
Nose-only exposures were conducted in a “flow-past” cylindrical inhalation chamber placed inside a steel-framed Plexiglas secondary containment box. The chamber contained 48 animal ports, each compatible with a single nose-only exposure tube, aerosol concentration sampling device (e.g., filter), or oxygen monitor.
The total air flow through the exposure system was balanced to achieve individual animal port flows of ˜500 mL/min (port flow approximated based on total chamber flow). Measured flows included sample flow rate, nebulizer flow rate, dilution flow rate (chamber make-up air), and chamber exhaust flow.
Vancomycin solution was aerosolized with two Aerotech II nebulizers operated at 20 psi driving pressure. The target aerosol Vancomycin concentration for all exposure levels was ˜1.0 mg/L.
Aerosolized vancomycin was administered to 3 groups of male and female CD rats (available from Charles River Laboratories, Kingston, N.Y.) for durations of 30 min (Low), 90 min (Mid), and 180 min (High). A control group was exposed for 180 min to aerosols generated from a normal saline solution. Groups of rats from the Control and High level 14-day exposures were also studied following a 14-day recovery period. Endpoints included clinical observations, body weights, clinical pathology (hematology, clinical chemistry), urinalyses, organ weights, and histopathology.

The nature of data set [5]: particle size distribution of nebulized aerosol, laser diffraction. It counts as physicochemical. As to conditions: solutions in WFI 60 to 140 mg/ml, fill 2 to 4 ml.
Experimental: Droplet size distributions for aerosolized drug and placebo solutions were measured using the Sympatec HELOS laser diffraction spectrometer. In preparation for a run, the nebulizer was connected to the compressed air line, the flow turned on and the pressure regulator set to a driving pressure to generate a flow rate of 8 LPM through the nebulizer. The flow was then turned off by closing the flow shut-off valve. Next, the nebulizer was connected to a “T” piece with one port plugged, and the other port coupled to a mouthpiece. The nebulizer was then filled with drug solution, and mounted so that nebulizer mouthpiece was aligned parallel to the nozzle of the Rodos dry powder disperser apparatus already installed in the spectrometer. The laser diffraction system was setup to automatically trigger when it sensed the presence of the aerosol generated by the nebulizer. Measurements were initiated by opening the shut-off valve to pressurize the nebulizer and generate the aerosol. A total of 6 particle size distribution scans were taken for each nebulizer run, and then averaged to provide representative size distribution results.
Data set [6] is described as follows: 14-consecutive day face mask inhalation toxicity and recovery. It counts as in vivo, dog. Particulars: both sexes, beagle, dog, in vivo, inhaled, high exposure level (60 min). As for the experimental part: (§1) This Example involved evaluating the potential toxicity and recovery resulting from a 14-consecutive day, face mask inhalation administration of vancomycin hydrochloride to beagle dogs.
(§2) Within 2 hours prior to usage, a vancomycin nebulizer solution having a concentration of 120 mg/ml was formed by dissolving vancomycin hydrochloride (available from Alpharma, Copenhagen, Denmark) in sterile water for injection USP (available from B. Braun Medical Inc., Bethlehem, Pa.). The solution was used to generate aerosolized vancomycin for all vancomycin exposure groups.
(§3) The exposure system consisted of a single, cylindrical, plexiglass inhalation chamber (volume of ˜23.7 L, 14.61-cm radius, 35.56-cm height). The chamber was supplied with two Aerotech II nebulizers operated at ˜40 psi. Nebulized test article and nebulizer air supply was diluted with ˜10 L/min HEPA-filtered dilution air. The flow through the system was ˜36 L/min.
(§4) The aerosolized vancomycin was administered via a face mask to 3 groups of male and female beagle dogs for durations of 15 min (Low), 30 min (Mid), and 60 min (High). A control group was exposed for 60 min to aerosols generated from normal saline solution, i.e., 0.9% sodium chloride injection USP (available from B. Braun Medical Inc.).
(§5) Groups of dogs from the Control and High level 14-day exposures were also studied following a 14-day recovery period. Endpoints for all groups of dogs included physical examinations, clinical observations, body weights, opthalmology, cardiovascular EKG, clinical pathology (hematology, clinical chemistry), urinalyses, organ weights, histopathology, and toxicokinetics.

Another data set deals with beagle dogs. Described as above. It counts as in vivo, dog. As for the experimental part:
as §1, §2, §3, §4, §5

Setting [7] is: exposure aerosol from 120 mg/ml solution.

In the case of gentamicin sulfate, the Osmolality in data set [1] (20 mg/ml active in 0.9% saline) is listed as 318 mOsmol/kg; in data set [1] (20 mg/ml active in WFI), 61 mOsmol/kg; in data set [1] (40 mg/ml active in 0.9% saline), 353 mOsmol/kg; in data set [1] (40 mg/ml active in WFI), 101 mOsmol/kg; in data set [1] (80 mg/ml active in 0.9% saline) it was 445 mOsmol/kg; in data set [1] (80 mg/ml active in WFI), 197 mOsmol/kg. In addition, the Osmolality is recorded as 275 mOsmol/kg in data set [1] (120 mg/ml active in WFI), 524 mOsmol/kg in data set [1] (200 mg/ml active in WFI), 1178 mOsmol/kg in data set [1] (250 mg/ml active in WFI) and 2013 mOsmol/kg in data set [1] (300 mg/ml active in WFI).
For `CN[C@H](CC(C)C)C(=O)N[C@H]1C(=O)N[C@@H](CC(N)=O)C(=O)N[C@H]2C(=O)N[C@H]3C(=O)N[C@H](C(=O)N[C@H](C(=O)O)c4cc(O)cc(O)c4-c4cc3ccc4O)[C@H](O)c3ccc(c(Cl)c3)Oc3cc2cc(c3O[C@@H]2O[C@H](CO)[C@@H](O)[C@H](O)[C@H]2O[C@H]2C[C@](C)(N)[C@H](O)[C@H](C)O2)Oc2ccc(cc2Cl)[C@H]1O` [Vancomycin HCl, vancomycin hydrochloride], the Density in data set [2] (100.12 mg/mL in water) is given as 1.027 g/mL; in data set [2] (110.16 mg/mL in water) it was 1.034 g/mL; in data set [2] (120.26 mg/mL in water), 1.037 g/mL; in data set [2] (130.5 mg/mL in water) it was 1.042 g/mL; in data set [2] (140.8 mg/mL in water), 1.046 g/mL. Further, the pH is reported as 3.8-4.1 in data set [3] (100.12 mg/mL in water); 3.7-3.9 in data set [3] (110.16 mg/mL in water); 3.6-3.8 in data set [3] (120.26 mg/mL in water); 3.5-3.7 in data set [3] (130.5 mg/mL in water); 3.4-3.5 in data set [3] (140.8 mg/mL in water). The solubility at 48 h in data set [4] was 141 mg/mL. The “no observed effect level” value with CD rats (14-day inhalation) was “not established”. Moreover, the tolerability of exposures result in the data set on CD rats (30, 90, 180 min/day, 14 days, about 1.2 mg/L) is “well-tolerated”; in the data set on beagle dogs (15, 30, 60 min/day, 14 days, about 1.4-1.5 mg/L) it was “well-tolerated”. The values for the lung weight increase in the data set on CD rats (High exposure level (180 min)), in the data set with CD rats (Low exposure level (30 min)) and with CD rats (Mid exposure level (90 min)) were ~19 % of control, “approximately 8 % of control” and ~20 % of control, respectively. Also, in the data set with CD rats (Mid and High exposure levels), the “increase in aspartate aminotransferase (AST) values” is 28-46%. Also, the “neutrophils (hematology)” value in the data set on CD rats (Mid and High exposure levels) was “statistically significant increase”. In the data set with CD rats (after 14 days of recovery, High level), the “histopathologic findings after recovery” value is “substantial diminution of these findings”. Moreover, in the data set with CD rats (all exposure levels), the body weight result is listed as “no vancomycin treatment related effects”. Besides, the clinical observations result in the data set with CD rats (all exposure levels) is “no vancomycin related effects”. Besides, the “serum indicators of kidney function or urinalysis” value in the data set with CD rats (all exposure levels) is given as “No vancomycin related changes”. Besides, the survival result was “All rats survived to scheduled necropsy” in the data set on CD rats (all exposure levels, 14 days) and “All dogs survived to scheduled necropsy” in the data set with beagle dogs (all exposure levels, 14 days). In addition, in the data set on CD rats (end of 14-day exposure), the “exposure related histopathologic findings” value is recorded as “limited to the respiratory tract”. For the same compound, the “mean particle size, mass median aerodynamic diameter” value is 2.0-2.6 μm with CD rats (setting [7]) and 1.9-2.6 μm in the data set with beagle dogs (setting [7]). For the same compound, in data set [5], the “volume weighted median size” value is recorded as 2-3 μm. Also, the NOAEL at 14 days worked out at 9 mg/kg in data set [6] (read-out: no observed adverse effect level (NOAEL), deposited lung dose) and 45 mg/kg in data set [6] (read-out: no observed adverse effect level (NOAEL), inhaled dose). For the same compound, the “recovery of histopathological effects” value in the data set on beagle dogs (14-day recovery, High level) is given as “complete after 14 days”. Moreover, the “physical examinations, clinical observations, opthalmology, ECG, hematology, clinical chemistry, urinalyses, gross necropsy, organ weights” value in the data set on beagle dogs (all exposure levels) is reported as “no vancomycin related effects”. Further, the “effects of exposure in histopathology” value in the data set with beagle dogs (end of 14-day exposure) is on record as “limited to microscopic findings in the lung”.

One may read the solubility as the dissolved amount per volume that the medium holds. As a reminder, the NOAEL is the highest tested level that showed no adverse finding.
